Laboratory results: patent US6277854A, “Tricyclic antitumor farnesyl protein transferase inhibitors” (Schering Corporation, priority 1999, dated 2001)

Molecular target: farnesyl protein transferase
Test: In vitro enzyme assay: inhibition of farnesyl protein transferase (FPT), [3H]farnesyl transfer to Ras-CVLS
Type: biochemical, rat (brain); human (expressed in E. coli)
Text: 1. In vitro enzyme assays: Inhibition of famesyl protein transferase and geranylgeranyl protein transferase.
Farnesyl protein transferase (FPT) was partially purified from rat brain by ammonium sulfate fractionation followed by Q-Sepharose (Pharmacia, Inc.) anion exchange chromatography essentially as described by Yokoyama et al (Yokoyama, K., et al., (1991), A protein geranylgeranyltransferase from bovine brain: Implications for protein prenylation specificity, Proc. Natl. Acad. Sci USA 88: 5302-5306, the disclosure of which is incorporated herein by reference thereto). Human famesyl protein transferase was also expressed in E. coli, using cDNA clones encoding both the a and b subunits. The methods used were similar to those published (Omer, C. et al., (1993), Characterization of recombinant human famesyl protein transferase: Cloning, expression, farnesyl diphosphate binding, and functional homology with yeast prenyl-protein transferases, Biochemistry 32:5167-5176). Human famesyl protein transferase was partially-purified from the soluble protein fraction of E. coli as described above. […] Two forms of val^12 -Ha-Ras protein were prepared as substrates for these enzymes, differing in their carboxy terminal sequence. One form terminated in cysteine-valine-leucine-serine (Ras-CVLS) the other in cystein-valine-leucine-leucine (Ras-CVLL). Ras-CVLS is a substrate for the famesyl protein transferase while Ras-CVLL is a substrate for geranylgeranyl protein transferase I. The cDNAs encoding these proteins were constructed so that the proteins contain an amino-terminal extension of 6 histidine residues. Both proteins were expressed in Escherichia coli and purified using metal chelate affinity chromatography. The radiolabelled isoprenyl pyrophosphate substrates, [^3 H]farnesyl pyrophosphate and [^3 H]geranylgeranyl pyrophosphate, were purchased from DuPon/New England Nuclear.
Several methods for measuring farnesyl protein transferase activity have been described (Reiss et al 1990, Cell 62: 81; Schaber et al 1990, J. Biol. Chem. 265: 14701; Manne et al 1990, PNAS 87: 7541; and Barbacid & Manne 1993, U.S. Pat. No. 5,185,248). […] The reaction was allowed to proceed for 30 minutes at room temperature and then stopped with 0.5 ml of 4% sodium dodecyl sulfate (SDS) followed by 0.5 ml of cold 30% TCA. Samples were allowed to sit on ice for 45 minutes and precipitated Ras protein was then collected on GF/C filter paper mats using a Brandel cell harvester. Filter mats were washed once with 6% TCA, 2% SDS and radioactivity was measured in a Wallac 1204 Betaplate BS liquid scintillation counter. Percent inhibition was calculated relative to the DMSO vehicle control.

Row | IC50 [nM] | Structure (SMILES) | also measured
1 | 380 | CN(C)CC(=O)N1CCC(C2c3ncc(Br)cc3CCc3cc(Cl)cc(Cl)c32)CC1 (single isomer, unassigned) [Example 4] | –
2 | 56 | CN(C)CCC(=O)N1CCC(C2c3ncc(Br)cc3CCc3cc(Cl)cc(Cl)c32)CC1 (single isomer, unassigned) [Example 5] | –
3 | 22 | CN(C)CCCCC(=O)N1CCC(C2c3ncc(Br)cc3CCc3cc(Cl)cc(Cl)c32)CC1 (single isomer, unassigned) [Example 7] | –
4 | 14 | CCN(CC)CCC(=O)N1CCC(C2c3ncc(Br)cc3CCc3cc(Cl)cc(Cl)c32)CC1 (single isomer, unassigned) [Example 8] | –
5 | 6 | O=C(CCN1CCCCC1)N1CCC(C2c3ncc(Br)cc3CCc3cc(Cl)cc(Cl)c32)CC1 (single isomer, unassigned) [Example 9] | –
6 | 19 | O=C(CN1CCCC1=O)N1CCC(C2c3ncc(Br)cc3CCc3cc(Cl)cc(Cl)c32)CC1 (single isomer, unassigned) [Example 10] | –
7 | 76 | O=C(CCN1C(=O)CCC1=O)N1CCC(C2c3ncc(Br)cc3CCc3cc(Cl)cc(Cl)c32)CC1 (single isomer, unassigned) [Example 11] | –
8 | 61 | NC(=O)CCC(=O)N1CCC(C2c3ncc(Br)cc3CCc3cc(Cl)cc(Cl)c32)CC1 (single isomer, unassigned) [Example 12] | –
9 | 15 | CN(C)C(=O)CCC(=O)N1CCC(C2c3ncc(Br)cc3CCc3cc(Cl)cc(Cl)c32)CC1 (single isomer, unassigned) [Example 13] | –
10 | 16 | O=C(CCC(=O)N1CCC(C2c3ncc(Br)cc3CCc3cc(Cl)cc(Cl)c32)CC1)N1CCCC1 (single isomer, unassigned) [Example 14] | –
11 | 63 | CC(=O)NCCCC(=O)N1CCC(C2c3ncc(Br)cc3CCc3cc(Cl)cc(Cl)c32)CC1 (single isomer, unassigned) [Example 15] | –
12 | > 100 | O=C(NCCCC(=O)N1CCC(C2c3ncc(Br)cc3CCc3cc(Cl)cc(Cl)c32)CC1)Nc1ccccc1 (single isomer, unassigned) [Example 16] | –
13 | – | O=C(NCCCC(=O)N1CCC(C2c3ncc(Br)cc3CCc3cc(Cl)cc(Cl)c32)CC1)c1cccnc1 (single isomer, unassigned) [Example 18] | FPT inhibition (@ 93 nM): 9%
14 | – | O=C(CCCC(=O)N1CCC(C2c3ncc(Br)cc3CCc3cc(Cl)cc(Cl)c32)CC1)Nc1ccccc1 (single isomer, unassigned) [Example 19] | FPT inhibition (@ 0.06 μg/μL): 21%
15 | – | O=C(CCCC(=O)N1CCC(C2c3ncc(Br)cc3CCc3cc(Cl)cc(Cl)c32)CC1)Nc1ccc(Cl)cc1 (single isomer, unassigned) [Example 20] | FPT inhibition (@ 92 nM): 0%
16 | – | O=C(CCCC(=O)N1CCC(C2c3ncc(Br)cc3CCc3cc(Cl)cc(Cl)c32)CC1)NCc1ccccc1 (single isomer, unassigned) [Example 21] | FPT inhibition (@ 0.06 μg/μL): 35%

Row | IC50 [nM] | Structure (SMILES) | also measured
17 | 620 | O=C(CCCCCN1C(=O)C=CC1=O)N1CCC(C2c3ncc(Br)cc3CCc3cc(Cl)cc(Cl)c32)CC1 (single isomer, unassigned) [Example 23] | –
18 | – | O=C(NCCCC(=O)N1CCC(C2c3ncc(Br)cc3CCc3cc(Cl)cc(Cl)c32)CC1)c1ccncc1 (single isomer, unassigned) [Example 24] | FPT inhibition (@ 0.06 μg/μL): 20%
19 | 58 | NC(=O)NCCCC(=O)N1CCC(C2c3ncc(Br)cc3CCc3cc(Cl)cc(Cl)c32)CC1 (single isomer, unassigned; (+)) [Example 31] | –
20 | – | O=C(CCCN1C(=O)c2ccccc2C1=O)N1CCC(C2c3ncc(Br)cc3CCc3cc(Cl)cc(Br)c32)CC1 (single isomer, unassigned; (+)) [Example 32, (+)-4-(3,10-DIBROMO-8-CHLORO-6,11-DIHYDRO-5H-BENZO[5,6]CYCLO-HEPTA[1,2-b]PYRIDIN-11-YL)-1-[4-(1,3-DIHYDRO-1,3-DIOXO-2H-ISOINDOL-2-YL)-1-OXOBUTYL]PIPERIDINE] | FPT inhibition (@ 88 nM): 12%
21 | ~100 | O=C(CCCC(=O)N1CCC(C2c3ncc(Br)cc3CCc3cc(Cl)cc(Cl)c32)CC1)Nc1cccnc1 (centres unmarked) [Example 17] | –
22 | – | O=C(NCCCCC(=O)N1CCC(C2c3ncc(Br)cc3CCc3cc(Cl)cc(Cl)c32)CC1)c1ccccc1 (centres unmarked) [Example 22] | FPT inhibition (@ 0.06 μg/μL): 41%
23 | – | CC(C)(C)OC(=O)NCCCC(=O)N1CCC(C2c3ncc(Br)cc3CCc3cc(Cl)cc(Cl)c32)CC1 (centres unmarked) [Example 25] | FPT inhibition (@ 330 nM): 47%
24 | 540 | CC(C)(C)OC(=O)NCC(=O)N1CCC(C2c3ncc(Br)cc3CCc3cc(Cl)cc(Cl)c32)CC1 (centres unmarked) [Example 26] | –
25 | – | O=C(CCCN1C(=O)c2ccncc2C1=O)N1CCC(C2c3ncc(Br)cc3CCc3cc(Cl)cc(Cl)c32)CC1 (centres unmarked) [Example 33, 4-(8,10-DICHLORO-3-BROMO-6,11-DIHYDRO-5H-BENZO[5,6]CYCLO-HEPTA[1,2-b]PYRIDIN-11-YL)-1-[4-(1,3-DIHYDRO-1,3-DIOXO-2H-PYRROLO-[3,4c]-PYRIDINE-2-YL)-1-OXOBUTYL]PIPERIDINE] | FPT inhibition (@ 93.4 nM): 38.7%
26 | 28 | CCOC(=O)CC(=O)N1CCC([C@H]2c3ncc(Br)cc3CCc3cc(Cl)cc(Br)c32)CC1 [Example 45, (+)-ETHYL 4-(3,10-DIBROMO-8-CHLORO-6,11-DIHYDRO-5H-BENZO[5,6]CYCLO-HEPTA[1,2-b]PYRIDIN-11(R)-YL)-BETA-OXO-1-PIPERIDININE PROPANOATE] | –
27 | 78 | O=C(O)CC(=O)N1CCC([C@H]2c3ncc(Br)cc3CCc3cc(Cl)cc(Br)c32)CC1 [Example 46, (+)-SODIUM 4-(3,10-DIBROMO-8-CHLORO-6,11-DIHYDRO-5H-BENZO[5,6]CYCLO-HEPTA[1,2-b]PYRIDIN-11(R)-YL)-BETA-OXO-1-PIPERIDININE PROPANOATE] | –
28 | 68 | NC(=O)CC(=O)N1CCC([C@H]2c3ncc(Br)cc3CCc3cc(Cl)cc(Br)c32)CC1 [Example 47, 4-(3,10-DIBROMO-8-CHLORO-6,11-DIHYDRO-5H-BENZO[5,6]CYCLO-HEPTA[1,2-b]PYRIDIN-11(R)-YL)-BETA-OXO -1-PIPERIDININE PROPANAMIDE] | –
29 | 9 | COC(=O)CCC(=O)N1CCC([C@H]2c3ncc(Br)cc3CCc3cc(Cl)cc(Br)c32)CC1 [Example 48, (+)-METHYL 4-(3,10-DIBROMO-8-CHLORO-6,11-DIHYDRO-5H-BENZO[5,6]CYCLO-HEPTA[1,2-b]PYRIDIN-11(R)-YL)-GAMMA-OXO -1-PIPERIDININE BUTANOATE] | –
30 | 270 | O=C(O)CCC(=O)N1CCC([C@H]2c3ncc(Br)cc3CCc3cc(Cl)cc(Br)c32)CC1 [Example 49, (+)-SODIUM 4-(3,10-DIBROMO-B-CHLORO-6,11-DIHYDRO-5H-BENZO[5,6]CYCLO-HEPTA[1,2-b]PYRIDIN-11(R)-YL)-GAMMA-OXO-1-PIPERIDININE BUTANOATE] | –
31 | 14 | NC(=O)CCC(=O)N1CCC([C@H]2c3ncc(Br)cc3CCc3cc(Cl)cc(Br)c32)CC1 [Example 50, (+)-4-(3,10-DIBROMO-8-CHLORO-6,11-DIHYDRO-5H-BENZO[5,6]CYCLO-HEPTA[1,2-b]PYRIDIN-11(R)-YL)-GAMMA-OXO -1-PIPERIDININE BUTANAMIDE] | –

Row | Structure (SMILES) | IC50 [nM] | also measured
32 | NC(=O)N1CCC(C2c3ncc(Br)cc3CCc3cc(Cl)cc(Cl)c32)CC1 (single isomer, unassigned; (+)) [Example 1, (+)-4-(3-BROMO-8,10-DICHLORO-6,11-DIHYDRO-5H-BENZO[5,6]-CYCLOHEPTA[1 ,2-b]PYRIDIN-11-YL)-1-PIPERIDINE CARBOXAMIDE] | 390 | –
33 | CN(C)CCCC(=O)N1CCC(C2c3ncc(Br)cc3CCc3cc(Cl)cc(Br)c32)CC1 (single isomer, unassigned; (+)) [Example 2, (+)-4-(3,10-DIBROMO-8-CHLORO-6,11-DIHYDRO-5H-BENZO[5,6]-CYCLO-HEPTA[1,2-b]PYRIDIN-11-YL)-1-[4-(DIMETHYLAMINO)-1-OXOBUTYL]PIPERIDINE] | 4 | –
34 | NCC(=O)N1CCC(C2c3ncc(Br)cc3CCc3cc(Cl)cc(Cl)c32)CC1 (single isomer, unassigned; (+)) [Example 3, (+)-1-(AMINOACETYL)-4-(3-BROMO-8,10-DICHLORO-6,11-DIHYDRO-5H-BENZO[5,6]CYCLO-HEPTA[1,2-b]PYRIDIN-11-YL) PIPERIDINE] | 1100 | –
35 | NCCCC(=O)N1CCC(C2c3ncc(Br)cc3CCc3cc(Cl)cc(Cl)c32)CC1 (single isomer, unassigned; (+)) [Example 27, (+)-1-(4-AMINO-1-OXOBUTYL)-4-(3-BROMO-8,10-DICHLORO-6,11-DIHYDRO-5H-BENZO[5,6]CYCLO-HEPTA[1,2-b]PYRIDIN-11-YL) PIPERIDINE] | 130 | –
